Data reported in ChEMBL document CHEMBL4417631, “Oral peptide inhibitors of interleukin-23 receptor and their use to treat inflammatory bowel diseases” (2017).
pIC50: −log10 of the molar value. Where a SMILES comes first, the peptide text is derived from it. [ ]: non-standard residue; d: D form. 2Nal = N[C@@H](Cc1ccc2ccccc2c1)C(=O)O; Pen = CC(C)(S)[C@H](N)C(=O)O; αMeK = C[C@](N)(CCCCN)C(=O)O

What was measured:
[1] = Inhibition of interleukin-23 binding to rat interleukin-23 receptor incubated for 2 hrs by competitive binding ELISA
Interleukin-23 receptor [2] = target: T1, Interleukin-23 receptor (Homo sapiens, UniProt Q5VWK5); assay: Inhibition of interleukin-23 binding to human interleukin-23 receptor incubated for 2 hrs by competitive binding ELISA
T1 sequence (Q5VWK5 whole entry): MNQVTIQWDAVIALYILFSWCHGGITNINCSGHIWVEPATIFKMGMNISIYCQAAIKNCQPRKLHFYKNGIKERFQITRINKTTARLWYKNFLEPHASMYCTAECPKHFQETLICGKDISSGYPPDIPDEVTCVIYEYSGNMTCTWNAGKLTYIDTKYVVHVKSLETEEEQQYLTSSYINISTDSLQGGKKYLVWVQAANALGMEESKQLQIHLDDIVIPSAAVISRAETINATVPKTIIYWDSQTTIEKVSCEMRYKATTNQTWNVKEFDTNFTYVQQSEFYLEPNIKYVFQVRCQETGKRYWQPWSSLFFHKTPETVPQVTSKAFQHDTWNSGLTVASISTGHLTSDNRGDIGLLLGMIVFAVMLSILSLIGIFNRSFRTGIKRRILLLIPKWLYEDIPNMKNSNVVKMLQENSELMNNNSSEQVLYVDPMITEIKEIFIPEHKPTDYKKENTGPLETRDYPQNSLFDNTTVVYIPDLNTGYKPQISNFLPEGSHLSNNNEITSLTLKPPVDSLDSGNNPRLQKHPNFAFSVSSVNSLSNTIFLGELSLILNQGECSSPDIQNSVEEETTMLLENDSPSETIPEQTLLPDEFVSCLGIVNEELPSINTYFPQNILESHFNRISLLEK

[3] = Half life in simulated intestinal fluid at 20 uM by LC-MS/MS analysis; format: ADME
Interleukin-23 receptor [4] = target: T1, Interleukin-23 receptor; assay: Inhibition of interleukin-23 receptor in human DB cells assessed as reduction in IL-23-stimulated STAT3 phosphorylation incubated for 30 mins by HTRF assay; format: cell-based

SMILES | pIC50 [1] | pIC50 (Interleukin-23 receptor [2]) | half-life at 20 µM [3] | pIC50 (Interleukin-23 receptor [4])
CC(=O)N[C@@H](CS)C(=O)N[C@@H](CCC(N)=O)C(=O)N[C@H](C(=O)N[C@@H](Cc1c[nH]c2ccccc12)C(=O)N[C@@H](CCC(N)=O)C(=O)N[C@H](C(=O)N[C@@H](Cc1ccc(O)cc1)C(=O)N[C@@H](Cc1c[nH]c2ccccc12)C(=O)N[C@@](C)(CC(C)C)C(=O)N[C@@H](CCC(=O)O)C(=O)N[C@@H](CC(N)=O)C(=O)NCC(N)=O)C(C)(C)S)[C@@H](C)O | 6.00 to 7.00 | 6.00 to 7.00 | < 1 h | 
COc1ccc(C[C@H](NC(=O)[C@@H](NC(=O)[C@H](CCC(N)=O)NC(=O)[C@H](Cc2c[nH]c3ccccc23)NC(=O)[C@@H](NC(=O)[C@H](CCC(N)=O)NC(=O)[C@@H](NC(C)=O)C(C)(C)S)[C@@H](C)O)C(C)(C)S)C(=O)N[C@@H](Cc2cccc3ccccc23)C(=O)N[C@@](C)(CCCCN)C(=O)N[C@@H](CCCCNC(C)=O)C(=O)N[C@@H](CC(N)=O)C(=O)NCC(N)=O)cc1 | 6.00 to 7.00 | 7.00 to 7.60 | > 6 h | 7.00 to 7.60
CC(=O)N[C@H](C(=O)N[C@@H](CCC(N)=O)C(=O)N[C@H](C(=O)N[C@@H](Cc1c[nH]c2ccccc12)C(=O)N[C@@H](CCC(N)=O)C(=O)N[C@H](C(=O)N[C@@H](Cc1ccc2ccccc2c1)C(=O)N[C@@H](Cc1ccc2ccccc2c1)C(=O)N[C@@](C)(CCCCN)C(=O)N[C@@H](CCC(=O)O)C(=O)N[C@@H](CC(N)=O)C(=O)NCC(N)=O)C(C)(C)S)[C@@H](C)O)C(C)(C)S (Ac-[Pen]QTWQ[Pen][2Nal][2Nal][αMeK]ENG-NH2) | 6.00 to 7.00 | 6.00 to 7.00 | 3 to 6 h | 7.60 to 8.00
CC(=O)N[C@H]1CCSC[C@@H](C(=O)N[C@@H](Cc2ccc(O)cc2)C(=O)N[C@@H](Cc2c[nH]c3ccccc23)C(=O)N[C@@H](CCCNC(=N)N)C(=O)N[C@@H](CCC(=O)O)C(=O)N[C@@H](CC(N)=O)C(=O)NCC(=O)NCCOCC(=O)N[C@H](CCCCN)C(N)=O)NC(=O)[C@H](CCC(N)=O)NC(=O)[C@H](Cc2c[nH]c3ccccc23)NC(=O)[C@H]([C@@H](C)O)NC(=O)[C@H](CCC(N)=O)NC1=O | 6.00 to 7.00 | 6.00 to 7.00 | < 1 h | 7.00 to 7.60
CC(=O)NCCCC[C@H](NC(=O)[C@](C)(CCCCN)NC(=O)[C@H](Cc1ccc2ccccc2c1)NC(=O)[C@H](Cc1ccc2ccccc2c1)NC(=O)[C@@H]1CSCC[C@H](NC(C)=O)C(=O)N[C@@H](CCC(N)=O)C(=O)N[C@@H]([C@@H](C)O)C(=O)N[C@@H](Cc2c[nH]c3ccccc23)C(=O)N[C@@H](CCC(N)=O)C(=O)N1)C(=O)N[C@@H](CC(N)=O)C(=O)NCC(N)=O | 7.00 to 7.60 | 7.00 to 7.60 | 3 to 6 h | 7.60 to 8.00
CC(=O)N[C@H]1CCSC[C@@H](C(=O)N[C@@H](Cc2ccc(O)cc2)C(=O)N[C@@H](Cc2c[nH]c3ccccc23)C(=O)N[C@@](C)(CC(C)C)C(=O)N[C@@H](CCC(=O)O)C(=O)N[C@@H](CC(N)=O)C(=O)NCC(N)=O)NC(=O)[C@H](CCC(N)=O)NC(=O)[C@H](Cc2c[nH]c3ccccc23)NC(=O)[C@H]([C@@H](C)O)NC(=O)[C@H](CCC(N)=O)NC1=O | 7.00 to 7.60 | 7.60 to 8.00 | < 1 h | > 8.00
COc1ccc(C[C@H](NC(=O)[C@@H](NC(=O)[C@H](CCC(N)=O)NC(=O)[C@H](Cc2c[nH]c3ccccc23)NC(=O)[C@@H](NC(=O)[C@H](CCC(N)=O)NC(=O)[C@@H](NC(C)=O)C(C)(C)S)[C@@H](C)O)C(C)(C)S)C(=O)N[C@@H](Cc2c[nH]c3ccccc23)C(=O)N[C@@](C)(CCCCN)C(=O)N[C@@H](CCCCNC(C)=O)C(=O)N[C@@H](CC(N)=O)C(=O)NCC(N)=O)cc1 | 7.00 to 7.60 | 7.00 to 7.60 | > 6 h | 7.60 to 8.00
CC(=O)NCCCC[C@H](NC(=O)[C@](C)(CCCN)NC(=O)[C@H](Cc1ccc2ccccc2c1)NC(=O)[C@H](Cc1ccc2ccccc2c1)NC(=O)[C@@H]1CSCC[C@H](NC(C)=O)C(=O)N[C@@H](CCC(N)=O)C(=O)N[C@@H]([C@@H](C)O)C(=O)N[C@@H](Cc2c[nH]c3ccccc23)C(=O)N[C@@H](CCC(N)=O)C(=O)N1)C(=O)N[C@@H](CC(N)=O)C(=O)NCC(N)=O | 6.00 to 7.00 | 7.00 to 7.60 | 2 to 3 h | > 8.00
CC(=O)NCCCC[C@H](NC(=O)[C@H](CCC(C)C)NC(=O)[C@H](Cc1ccc2ccccc2c1)NC(=O)[C@H](Cc1ccc(OCCN)cc1)NC(=O)[C@@H]1CSCC[C@H](NC(C)=O)C(=O)N[C@@H](CCC(N)=O)C(=O)N[C@@H]([C@@H](C)O)C(=O)N[C@@H](Cc2c[nH]c3ccccc23)C(=O)N[C@@H](CCC(N)=O)C(=O)N1)C(=O)N[C@@H](CC(N)=O)C(=O)NCCC(N)=O | > 8.00 | > 8.00 | < 1 h | > 8.00
CC(=O)N[C@H](C(=O)N[C@@H](CCC(N)=O)C(=O)N[C@H](C(=O)N[C@@H](Cc1c[nH]c2ccccc12)C(=O)N[C@@H](CCC(N)=O)C(=O)N[C@H](C(=O)N[C@@H](Cc1ccc(O)cc1)C(=O)N[C@@H](Cc1cccc2ccccc12)C(=O)N[C@@](C)(CCCN)C(=O)N[C@@H](CCC(=O)O)C(=O)N[C@@H](CC(N)=O)C(=O)NCC(N)=O)C(C)(C)S)[C@@H](C)O)C(C)(C)S | 6.00 to 7.00 | 6.00 to 7.00 | 3 to 6 h | 7.00 to 7.60
CC(=O)N[C@H](C(=O)N[C@@H](CCC(N)=O)C(=O)N[C@H](C(=O)N[C@@H](Cc1c[nH]c2ccccc12)C(=O)N[C@@H](CCC(N)=O)C(=O)N[C@H](C(=O)N[C@@H](Cc1ccc(O)cc1)C(=O)N[C@@H](Cc1ccc2ccccc2c1)C(=O)N[C@@](C)(CCCN)C(=O)N[C@@H](CCC(=O)O)C(=O)N[C@@H](CC(N)=O)C(=O)NCC(N)=O)C(C)(C)S)[C@@H](C)O)C(C)(C)S | 6.00 to 7.00 | 7.00 to 7.60 | 3 to 6 h | 7.60 to 8.00
COc1ccc(C[C@H](NC(=O)[C@@H]2CSCC[C@H](NC(C)=O)C(=O)N[C@@H](CCC(N)=O)C(=O)N[C@@H]([C@@H](C)O)C(=O)N[C@@H](Cc3c[nH]c4ccccc34)C(=O)N[C@@H](CCC(N)=O)C(=O)N2)C(=O)N[C@@H](Cc2ccc3ccccc3c2)C(=O)NC(C)(C)C(=O)N[C@@H](CCCCNC(C)=O)C(=O)N[C@@H](CC(N)=O)C(=O)NCC(N)=O)cc1 | 7.00 to 7.60 | 7.60 to 8.00 | > 6 h | > 8.00
CC(=O)N[C@H](C(=O)N[C@@H](CCCNC(=N)N)C(=O)N[C@H](C(=O)N[C@@H](Cc1c[nH]c2ccccc12)C(=O)N[C@@H](CCC(N)=O)C(=O)N[C@@H](CS)C(=O)N[C@@H](Cc1ccc(O)cc1)C(=O)N[C@@H](Cc1c[nH]c2ccccc12)C(=O)N[C@@H](CCCNC(=N)N)C(=O)N[C@@H](CCCCN)C(=O)N[C@@H](Cc1ccccc1)C(=O)NCC(=O)NCCOCC(=O)N[C@H](CCCCN)C(N)=O)[C@@H](C)O)C(C)(C)S | 6.00 to 7.00 | 6.00 to 7.00 |  | 6.00 to 7.00
CC(=O)NCCCC[C@H](NC(=O)[C@](C)(CCCCN)NC(=O)[C@H](Cc1ccc2ccccc2c1)NC(=O)[C@H](Cc1ccc(OCCN)cc1)NC(=O)[C@@H](NC(=O)[C@H](CCC(N)=O)NC(=O)[C@H](Cc1c[nH]c2ccccc12)NC(=O)[C@@H](NC(=O)[C@H](CCC(N)=O)NC(=O)[C@@H](NC(C)=O)C(C)(C)S)[C@@H](C)O)C(C)(C)S)C(=O)N[C@@H](CC(N)=O)C(=O)NCC(N)=O | 7.00 to 7.60 | > 8.00 |  | > 8.00
COc1ccc(C[C@H](NC(=O)[C@@H](NC(=O)[C@H](CCC(N)=O)NC(=O)[C@H](Cc2c[nH]c3ccccc23)NC(=O)[C@@H](NC(=O)[C@H](CCC(N)=O)NC(=O)[C@@H](NC(=O)CCCC(=O)O)C(C)(C)S)[C@@H](C)O)C(C)(C)S)C(=O)N[C@@H](Cc2ccc3ccccc3c2)C(=O)N[C@@](C)(CCCCN)C(=O)N[C@@H](CCCCNC(C)=O)C(=O)N[C@@H](CC(N)=O)C(=O)NCC(N)=O)cc1 | 7.00 to 7.60 | 7.00 to 7.60 |  | 7.60 to 8.00
COc1ccc(C[C@H](NC(=O)[C@@H](NC(=O)[C@H](CCC(N)=O)NC(=O)[C@H](Cc2c[nH]c3ccccc23)NC(=O)[C@@H](NC(=O)[C@H](CCC(N)=O)NC(=O)[C@@H](NC(=O)CC(C)C)C(C)(C)S)[C@@H](C)O)C(C)(C)S)C(=O)N[C@@H](Cc2ccc3ccccc3c2)C(=O)N[C@@](C)(CCCCN)C(=O)N[C@@H](CCCCNC(C)=O)C(=O)N[C@@H](CC(N)=O)C(=O)NCC(N)=O)cc1 | 7.00 to 7.60 | 7.00 to 7.60 |  | 7.60 to 8.00
